# Experiments:
# Bcl-xL = Bcl-xL (Homo sapiens, UniProt Q07817); assay: Bcl-xL binding affinity analysis (fluorescence polarization binding assay); parameters: scale not given here
# Text: (§1) Bcl-2 and Bcl-xL binding can be determined using a variety of known methods. One such assay is a sensitive and quantitative in vitro binding assay using fluorescence polarization (FP) described by Wang, J. -L.; Zhang, Z -J.; Choksi, S.; Sjam. S.; Lu, Z.; Croce, C. M.; Alnenri, E. S.; Komgold, R.; Huang, Z. Cell permeable Bcl-2 binding peptides: a chemical approach to apoptosis induction in tumor cells. Cancer Res. 2000, 60, 1498-1502).
# (§2) Bcl-2 and Bcl-xL binding affinity analysis data is presented below for various compounds of the invention.
# Bcl-2 = Bcl-2 (Homo sapiens, UniProt P10415); assay: Bcl-2 binding affinity analysis (fluorescence polarization binding assay)
# Text: as §1, §2
# Chain of Bcl-2 (P10415 whole entry): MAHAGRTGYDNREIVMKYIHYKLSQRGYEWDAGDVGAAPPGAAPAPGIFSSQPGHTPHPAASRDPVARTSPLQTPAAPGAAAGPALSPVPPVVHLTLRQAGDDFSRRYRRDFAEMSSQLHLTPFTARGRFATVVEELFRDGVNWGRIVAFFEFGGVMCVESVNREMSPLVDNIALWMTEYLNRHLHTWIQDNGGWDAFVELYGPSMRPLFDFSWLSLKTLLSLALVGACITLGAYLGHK
# Chain of Bcl-xL (Q07817 whole entry): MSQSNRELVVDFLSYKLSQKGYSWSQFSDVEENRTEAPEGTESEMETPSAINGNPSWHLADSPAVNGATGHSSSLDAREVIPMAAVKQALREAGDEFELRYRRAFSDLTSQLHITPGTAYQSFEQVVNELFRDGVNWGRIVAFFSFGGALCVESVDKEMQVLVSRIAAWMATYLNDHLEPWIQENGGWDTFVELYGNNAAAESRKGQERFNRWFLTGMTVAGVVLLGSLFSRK
SMILES,Bcl-XL binding affinity Ki (Bcl-xL),Ki (Bcl-2) [nM]
C[C@@H]1C(NC(=O)[C@@H]2[C@H]([C@H](C)O)[C@H](CO)ON2Cc2cccc(-c3ccc(NCCN(C)C)cc3)c2)C[C@@H]2CC1C2(C)C (some centres unmarked) [Compound 276],♯,< 800
C[C@H](O)[C@@H]1[C@H](CO)ON(Cc2cccc(-c3cccc(NS(C)(=O)=O)c3)c2)[C@@H]1C(=O)NC1C[C@H]2C[C@@H]([C@@H]1C)C2(C)C (some centres unmarked) [Compound 181],♯♯,< 800
C[C@@H]1[C@@H](NC(=O)[C@@H]2[C@H]([C@H](C)O)[C@H](CO)ON2Cc2cccc(-c3cccc(C(=O)N(C)CCCN(C)C)c3)c2)C[C@H]2C[C@@H]1C2(C)C [Compound 148],♯,< 800
C[C@@H]1[C@@H](NC(=O)[C@@H]2[C@H]([C@H](C)O)[C@H](CO)ON2Cc2cccc(-c3cccc(C(=O)NCC4CC4)c3)c2)C[C@H]2C[C@@H]1C2(C)C [Compound 145],♯♯,< 800
C[C@@H]1[C@@H](NC(=O)[C@@H]2[C@H]([C@H](C)O)[C@H](CO)ON2Cc2cccc(N3CCN(C(=S)NCCN4CCOCC4)CC3)c2)C[C@H]2C[C@@H]1C2(C)C [Compound 264],♯,< 800
C[C@@H](O)[C@H]1[C@@H](CO)ON(Cc2cccc(C#CC(O)c3ccoc3)c2)[C@H]1C(=O)NCCCN(C)c1ccccc1 (some centres unmarked) [Compound 36],♯♯,800 to 6000
C[C@@H](O)[C@H]1[C@@H](CO)ON(Cc2cccc(C#CC(O)c3ccc(-n4ccnc4)cc3)c2)[C@H]1C(=O)NCCCN(C)c1ccccc1 (some centres unmarked) [Compound 42],♯♯,800 to 6000
Cc1cccc(CN(Cc2cccc(CN3OC(CO)C(C(C)O)C3C(=O)NC3CC4CC(C3C)C4(C)C)c2)C(CC(C)C)CN(C)C)c1O (centres unmarked) [Compound 337],♯,< 800
COc1c(CN2O[C@@H](CO)[C@@H]([C@H](C)O)[C@H]2C(=O)N[C@H]2C[C@H]3C[C@@H]([C@@H]2C)C3(C)C)cccc1-c1ccc(C(=O)N(C)C)cc1 [Compound 174],♯,< 800
C[C@@H](O)[C@H]1[C@@H](CO)ON(Cc2cccc(C#CC(C)(O)c3ccccc3)c2)[C@H]1C(=O)NCCCN(C)c1ccccc1 (some centres unmarked) [Compound 49],♯,800 to 6000
C[C@@H](O)[C@H]1[C@@H](CO)ON(Cc2cccc(C#CC(O)c3ccc(-c4ccccn4)cc3)c2)[C@H]1C(=O)NCCCN(C)c1ccccc1 (some centres unmarked) [Compound 252],♯,< 800
C[C@@H]1[C@@H](NC(=O)[C@@H]2[C@H]([C@H](C)O)[C@H](CO)ON2Cc2cccc(-c3ccc(S(C)(=O)=O)cc3)c2)C[C@H]2C[C@@H]1C2(C)C [Compound 115],♯,< 800
CC(O)[C@H]1[C@@H](CO)ON(Cc2cccc(C#CC(O)c3ccc(F)cc3)c2)[C@H]1C(=O)NCCCN(C)c1ccccc1 (some centres unmarked) [Compound 29],♯,800 to 6000
CC(=O)Nc1cccc(-c2cccc(CN3O[C@@H](CO)[C@@H]([C@H](C)O)[C@H]3C(=O)NC3C[C@H]4C[C@@H]([C@@H]3C)C4(C)C)c2)c1 (some centres unmarked) [Compound 183],♯♯,< 800
COc1ccc(C(O)C#Cc2cccc(CN3O[C@H](CO)[C@H]([C@@H](C)O)[C@@H]3C(=O)NCCCN(C)c3ccccc3)c2)c(C)c1 (some centres unmarked) [Compound 247],♯,< 800
CC(C)=CCC/C(C)=C/CNC(=O)[C@H]1[C@@H]([C@@H](C)O)[C@@H](CO)ON1Cc1cccc(C#CC(C)(O)c2ccccc2)c1 (some centres unmarked) [Compound 45],♯,6000 to 50000
C[C@@H]1[C@@H](NC(=O)[C@@H]2[C@H]([C@H](C)O)[C@H](CO)ON2Cc2cccc(N(CCN(C)C)Cc3ccccc3)c2)C[C@H]2C[C@@H]1C2(C)C [Compound 235],♯♯,< 800
C[C@@H](O)[C@H]1[C@@H](CO)ON(Cc2cccc(C#CC3(O)CCCC3)c2)[C@H]1C(=O)NCC1CCCCC1 [Compound 40],♯,> 50000
C[C@@H]1[C@@H](NC(=O)[C@@H]2[C@H]([C@H](C)O)[C@H](CO)ON2Cc2cccc(-c3cccc(C(=O)NCCN4CCOCC4)c3)c2)C[C@H]2C[C@@H]1C2(C)C [Compound 132],♯♯,< 800
C[C@@H]1C(NC(=O)[C@@H]2[C@H]([C@H](C)O)[C@H](CO)ON2Cc2cccc(-c3ccc(NCCCN(C)C)cc3)c2)C[C@@H]2CC1C2(C)C (some centres unmarked) [Compound 272],♯,< 800
C[C@@H]1[C@@H](NC(=O)[C@@H]2[C@H]([C@H](C)O)[C@H](CO)ON2Cc2cccc(-c3cccc(C(N)=O)c3)c2)C[C@H]2C[C@@H]1C2(C)C [Compound 219],♯,< 800
COCCNC(=O)c1cccc(-c2cccc(CN3O[C@@H](CO)[C@@H]([C@H](C)O)[C@H]3C(=O)N[C@H]3C[C@H]4C[C@@H]([C@@H]3C)C4(C)C)c2)c1 [Compound 153],♯,< 800
C[C@@H]1[C@@H](NC(=O)[C@@H]2C(CO)[C@H]([C@H](C)O)ON2Cc2cccc(C#CC(C)(O)c3ccccc3)c2)C[C@H]2C[C@@H]1C2(C)C (some centres unmarked) [Compound 35],♯,> 50000
CC(C)NC(=O)c1cccc(-c2cccc(CN3O[C@@H](CO)[C@@H]([C@H](C)O)[C@H]3C(=O)N[C@H]3C[C@H]4C[C@@H]([C@@H]3C)C4(C)C)c2)c1 [Compound 217],♯,< 800
CC(O)[C@H]1[C@@H](CO)ON(Cc2cccc(C#CC(C)(C)c3ccccc3)c2)[C@H]1C(=O)NCCCN(C)c1ccccc1 (some centres unmarked) [Compound 31],♯,800 to 6000
C[C@@H](O)[C@H]1[C@@H](CO)ON(Cc2cccc(C#CCNC(=O)c3ccccc3)c2)[C@H]1C(=O)NCc1ccc(Oc2ccccc2)cc1 [Compound 63],♯,800 to 6000
C[C@@H]1[C@@H](NC(=O)[C@@H]2[C@H]([C@H](C)O)[C@H](CO)ON2Cc2cccc(-c3cccc(C(=O)N[C@@H]4CCN(C)C4)c3)c2)C[C@H]2C[C@@H]1C2(C)C [Compound 137],♯,< 800
C[C@@H]1C(NC(=O)[C@@H]2[C@H]([C@H](C)O)[C@H](CO)ON2Cc2cccc(-c3ccc(NC(=O)N(C)CCCN(C)C)cc3)c2)C[C@@H]2CC1C2(C)C (some centres unmarked) [Compound 282],♯♯,< 800
C[C@@H](O)[C@H]1[C@@H](CO)ON(Cc2cccc(C#CCN(C)Cc3ccccc3)c2)[C@H]1C(=O)NCCCN(C)c1ccccc1 [Compound 51],♯,800 to 6000
C[C@@H](O)[C@H]1[C@@H](CO)ON(Cc2cccc(C#CC(O)c3ccccc3Cl)c2)[C@H]1C(=O)NCCCN(C)c1ccccc1 (some centres unmarked) [Compound 33],♯♯,800 to 6000

# More lines, now with the values ahead:
Bcl-XL binding affinity Ki (Bcl-xL),Ki (Bcl-2) [nM],SMILES
♯,< 800,COCCOc1cccc(CN(CCN(C)C)Cc2cccc(CN3OC(CO)C(C(C)O)C3C(=O)NC3CC4CC(C3C)C4(C)C)c2)c1 (centres unmarked) [Compound 406]
♯,800 to 6000,CC(C)C[C@@H](CN(C)C)N(Cc1ccccc1)Cc1cccc(CN2O[C@@H](CO)[C@@H]([C@H](C)O)[C@H]2C(=O)NCc2ccc(Oc3ccccc3)cc2)c1 [Compound 530]
♯,6000 to 50000,CC(C)C[C@@H](CN(C)C)N(Cc1ccccc1)Cc1cccc(CN2O[C@@H](CO)[C@@H]([C@H](C)O)[C@H]2C(=O)NCCCn2ccnc2)c1 [Compound 529]
♯,6000 to 50000,C[C@H](O)[C@@H]1[C@H](CO)ON(Cc2cccc(CN(CCN(C)C)Cc3ccccc3)c2)[C@@H]1C(=O)NC1CCN(C(=O)OC(C)(C)C)CC1 [Compound 528]
♯,800 to 6000,CC(C)C[C@@H](CN(C)C)NCc1cccc(CN2O[C@@H](CO)C([C@H](C)O)[C@H]2C(=O)N[C@H]2C[C@H]3C[C@@H]([C@@H]2C)C3(C)C)c1 (some centres unmarked) [Compound 552]
♯,< 800,CCC(C)C(CN(C)C)N(Cc1cccc(CN2OC(CO)C(C(C)O)C2C(=O)NC2CC3CC(C2C)C3(C)C)c1)Cc1c(O)cccc1F (centres unmarked) [Compound 440]
♯,< 800,CC(O)C1C(CO)ON(Cc2cccc(CN(CCN(C)C)CC3CCCOC3)c2)C1C(=O)NC1CC2CC(C1C)C2(C)C (centres unmarked) [Compound 382]
♯,800 to 6000,CC(C)C[C@@H](CN(C)C)N(Cc1ccccc1)Cc1cccc(CN2O[C@@H](CO)[C@@H]([C@H](C)O)[C@H]2C(=O)NCCCN(C)c2ccccc2)c1 [Compound 531]
♯,< 800,CC(O)C1C(CO)ON(Cc2cccc(CN3CCC(c4ccccc4)C3CN(C)C)c2)C1C(=O)NC1CC2CC(C1C)C2(C)C (centres unmarked) [Compound 450]
♯,< 800,CC(O)C1C(CO)ON(Cc2cccc(CN(CCN(C)C)Cc3ccccc3N3CCOCC3)c2)C1C(=O)NC1CC2CC(C1C)C2(C)C (centres unmarked) [Compound 364]
♯,800 to 6000,C[C@H](O)[C@@H]1[C@H](CO)ON(Cc2cccc(CN(CCN(C)C)Cc3ccccc3)c2)[C@@H]1C(=O)NCCc1cccc(-c2ccccc2)c1 [Compound 513]
♯,< 800,CC(O)C1C(CO)ON(Cc2cccc(CN(CCN(C)C)Cc3ccccc3-c3cccc(F)c3)c2)C1C(=O)NC1CC2CC(C1C)C2(C)C (centres unmarked) [Compound 342]
♯,6000 to 50000,C[C@H](O)[C@@H]1[C@H](CO)ON(Cc2cccc(CN(CCN(C)C)Cc3ccccc3)c2)[C@@H]1C(=O)NCCc1c[nH]c2ccccc12 [Compound 516]

# — US7851637B2, “Compounds and methods for inhibiting the interaction of BCL proteins with binding partners” (Infinity Pharmaceuticals, Inc., priority 2004, dated 2010)
